7 compounds from US20250228855A1, “PYRAZINAMIDE COMPOUNDS” (The General Hospital Corporation, priority 2022, published 2025) can be followed below.

Molecules are shown by their SMILES. Structures can show the parent of a compound that is named as a salt. Where two headings read alike, the source gives them in different places.

For test [1], the target named is T1, HsProRS (Homo sapiens, UniProt P07814).
T1 sequence (P07814 1007-1512 limits assumed): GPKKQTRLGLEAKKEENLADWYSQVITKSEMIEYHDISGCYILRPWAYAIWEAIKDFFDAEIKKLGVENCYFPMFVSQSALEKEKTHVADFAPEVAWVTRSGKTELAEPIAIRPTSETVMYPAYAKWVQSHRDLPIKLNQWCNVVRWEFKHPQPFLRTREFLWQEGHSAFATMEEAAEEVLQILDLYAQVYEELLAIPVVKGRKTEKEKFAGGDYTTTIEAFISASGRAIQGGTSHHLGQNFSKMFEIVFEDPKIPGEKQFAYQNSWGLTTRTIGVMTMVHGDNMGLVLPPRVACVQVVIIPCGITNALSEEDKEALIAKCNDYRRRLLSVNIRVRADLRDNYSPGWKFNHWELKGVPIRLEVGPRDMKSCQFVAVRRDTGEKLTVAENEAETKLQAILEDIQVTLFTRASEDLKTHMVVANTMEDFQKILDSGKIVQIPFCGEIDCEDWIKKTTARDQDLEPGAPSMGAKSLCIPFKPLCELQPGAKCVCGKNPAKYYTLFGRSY
Kind of test: TR-FRET ligand displacement assay with tracer MAT379, HsProRS. It is filed as binding. On the technique in general: In TR-FRET formats the signal depends on donor and acceptor labels being close together.

Test [2] deals with PfcProRS (Plasmodium falciparum, UniProt Q8I5R7). Kind of test: TR-FRET ligand displacement assay with tracer MAT379, PfcProRS. In kind it is binding.
Chain of PfcProRS (Q8I5R7 whole entry): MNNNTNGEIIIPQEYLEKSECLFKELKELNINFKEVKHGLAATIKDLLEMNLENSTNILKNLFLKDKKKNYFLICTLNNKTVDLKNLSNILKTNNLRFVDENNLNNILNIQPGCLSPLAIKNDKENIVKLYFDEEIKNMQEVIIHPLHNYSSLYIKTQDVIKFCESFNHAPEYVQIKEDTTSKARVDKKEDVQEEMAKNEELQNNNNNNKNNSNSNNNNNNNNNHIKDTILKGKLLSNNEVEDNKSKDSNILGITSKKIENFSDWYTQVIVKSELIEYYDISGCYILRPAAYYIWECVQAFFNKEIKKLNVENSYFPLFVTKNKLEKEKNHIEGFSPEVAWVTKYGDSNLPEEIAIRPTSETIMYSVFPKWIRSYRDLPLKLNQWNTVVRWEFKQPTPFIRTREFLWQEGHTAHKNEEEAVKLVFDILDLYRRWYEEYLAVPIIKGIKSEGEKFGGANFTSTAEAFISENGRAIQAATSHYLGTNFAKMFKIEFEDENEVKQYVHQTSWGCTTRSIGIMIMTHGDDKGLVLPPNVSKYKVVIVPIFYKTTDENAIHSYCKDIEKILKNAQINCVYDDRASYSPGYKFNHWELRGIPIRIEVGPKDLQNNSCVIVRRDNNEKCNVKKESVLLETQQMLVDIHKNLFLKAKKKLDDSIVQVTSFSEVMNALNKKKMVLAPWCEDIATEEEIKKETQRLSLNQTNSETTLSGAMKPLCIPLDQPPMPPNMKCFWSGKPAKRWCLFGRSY
Test [3] deals with halofuginone-induced (HFG-induced) P. falciparum. Kind of test: P. falciparum asexual blood stage growth assay, halofuginone-induced parasites. The following applies: Plasmodium falciparum.
Procedure: (§1) Asexual blood stage (ABS) P. falciparum parasites were treated with test compounds at varying concentrations for 72 h, followed by quantification of parasite growth by SYBR Green staining.
(§2) P. falciparum Asexual Blood Stage Growth Assay: This assay was performed as previously described.
Test [4] deals with P. falciparum Dd2-2D4. As to the kind of experiment: P. falciparum asexual blood stage growth assay, wild-type Dd2-2D4. The settings on record: Plasmodium falciparum.
Procedure: as §1, §2
Where [5] appears, read: no proline, no ATP, read-out: HsProRS (KD [nM]) −.
[6] abbreviates: PfcProRS (KD [nM]) +proline, 100 μM Pro.
[7] abbreviates: no proline, no ATP, read-out: PfcProRS (KD [nM]) −.
[8] abbreviates: DD2, 72 h, read-out: Dd2 (EC50 [nM]) Halofuginone-induced.
[9] abbreviates: DD2, 72 h, read-out: Dd2 (EC50 [nM]) wt.
[10] abbreviates: read-out: HsProRS (KD [nM]) +proline, 100 μM Pro.
The mark [11] stands for this setting: absence of proline, read-out: KD for HsProRS.
The mark [12] stands for this setting: absence of proline, read-out: KD for PfcProRS.

As for `CC(C)(C)OC(=O)NCC1CCN(C(=O)Nc2nccnc2C(=O)NC2Cc3ccccc3C2)CC1` [Compound 9, tert-butyl ((1-((3-((2,3-dihydro-1H-inden-2-yl)carbamoyl)pyrazin-2-yl)carbamoyl)piperidin-4-yl)methyl)carbamate], the Kd – broadly, the concentration at which binding is half-saturated – is above 5090 nM in test [1], 2510 nM in test [1] (setting [5]), 353 nM in test [2] (setting [6]) and 382 nM in test [2] (setting [7]). The EC50 (commonly the midpoint of the concentration-response curve) came to 7530 nM in test [3] (setting [8]) and 6570 nM in test [4] (setting [9]).
Consider `CC(C)(C)OC(=O)NCCCCCC(=O)NC1CCN(C(=O)Nc2nccnc2C(=O)NC2Cc3ccccc3C2)CC1` [Compound 41, tert-butyl (6-((1-((3-((2,3-dihydro-1H-inden-2-yl)carbamoyl)pyrazin-2-yl)carbamoyl)piperidin-4-yl)amino)-6-oxohexyl)carbamate], for which the Kd stood at 139 nM in test [1] (setting [5]), 561 nM in test [1] (setting [10]), 182 nM in test [2] (setting [6]) and 227 nM in test [2] (setting [7]). In addition, the results for the EC50 in test [3] (setting [8]) and in test [4] (setting [9]) were 6910 nM and 2110 nM, respectively.
`O=C(NC1Cc2ccccc2C1)c1nccnc1NC(=O)C1CCC1` [Compound 20, 3-(cyclobutanecarboxamido)-N-(2,3-dihydro-1H-inden-2-yl)pyrazine-2-carboxamide]: the Kd in test [1] (setting [5]) was found to be 738 nM; in test [1] (setting [10]), 13.2 nM; in test [2] (setting [6]) it was 100 nM; in test [2] (setting [7]), 1260 nM. For the same compound, the results for the EC50 in test [3] (setting [8]) and in test [4] (setting [9]) were 6010 nM and 3740 nM, respectively.
With `NCCCCCC(=O)NCC1CCN(C(=O)Nc2nccnc2C(=O)NC2Cc3ccccc3C2)CC1` [Compound 44, 3-(4-((6-aminohexanamido)methyl)piperidine-1-carboxamido)-N-(2,3-dihydro-1H-inden-2-yl)pyrazine-2-carboxamide dihydrochloride], the Kd in test [1] (setting [10]) was found to be 330 nM; in test [1] (read-out: HsProRS (KD [nM]) −) it was 1570 nM; in test [2] (setting [6]) it was 270 nM; in test [2] (setting [7]) it was 321 nM. For the same compound, the EC50 in test [3] (setting [8]) was 8910 nM; in test [4] (setting [9]), above 10000 nM.
On to `O=C(NS(=O)(=O)N1CCN(C(=O)Nc2nccnc2C(=O)NC2Cc3ccccc3C2)CC1)OC[C@H]1CCCN1` [MAT459, (R)-pyrrolidin-2-ylmethyl ((4-((3-((2,3-dihydro-1H-inden-2-yl)carbamoyl)pyrazin-2-yl)carbamoyl)piperazin-1-yl)sulfonyl)carbamate], for which the Kd in test [1] (KD for HsProRS in presence of 100 μM proline, 100 μM proline) is 245 nM; in test [1] (setting [11]) it was 105 nM; in test [2] (setting [6]) it was 552 nM; in test [2] (setting [12]), 736 nM. Besides, the EC50 is 7080 nM in test [3] (setting [8]); above 10000 nM in test [3] (read-out: EC50 in halofuginone-induced parasites); 4620 nM in test [4] (setting [9]); 4620 nM in test [4] (DD2, read-out: EC50 against Dd2-2D4 wildtype parasites).
In the case of `O=C(NS(=O)(=O)NCC1CCN(C(=O)Nc2nccnc2C(=O)NC2Cc3ccccc3C2)CC1)OCCn1cnc2ccccc2c1=O` [MAT514, 2-(4-oxoquinazolin-3(4H)-yl)ethyl (N-((1-((3-((2,3-dihydro-1H-inden-2-yl)carbamoyl)pyrazin-2-yl)carbamoyl)piperidin-4-yl)methyl)sulfamoyl)carbamate], the Kd in test [1] was found to be 372 nM; in test [1] (setting [11]), 277 nM; in test [2] (setting [6]) it was 32.6 nM; in test [2] (setting [12]) it was 35.2 nM. Besides, the EC50 came out at 7040 nM in test [3] (setting [8]) and 4560 nM in test [4] (setting [9]). The IC50 (usually the concentration that inhibits the measured activity by half) in test [4] (DD2, read-out: IC50 for Dd2-2D4) came out at 4560 nM.
With `CC(C)(C)OC(=O)N1CCC[C@@H](OC(=O)NS(=O)(=O)N2CCN(C(=O)Nc3nccnc3C(=O)NC3Cc4ccccc4C3)CC2)[C@@H]1CC(O)Cn1cnc2cc(Br)c(Cl)cc2c1=O` (stereo partly drawn) [MAT582, tert-butyl (2S,3R)-2-(3-(7-bromo-6-chloro-4-oxoquinazolin-3(4H)-yl)-2-hydroxypropyl)-3-((((4-((3-((2,3-dihydro-1H-inden-2-yl)carbamoyl)pyrazin-2-yl)carbamoyl)piperazin-1-yl)sulfonyl)carbamoyl)oxy)piperidine-1-carboxylate], the Kd in test [1] stood at 8.42 nM; in test [1] (setting [5]), 265 nM; in test [2] (setting [6]), 2740 nM; in test [2] (setting [7]) it was 2490 nM. The EC50 in test [3] (setting [8]) was above 10000 nM; in test [4] (setting [9]), 8660 nM.
